Some test systems named below: MDA-MB-231; HCT-116; OVCAR-5; UACC-62; CAKI-1; UACC-257; HCT-15; TK-10; MDA-N; NCI-H460; HL-60; SF-268; SK-MEL-5; MOLT-4; RPMI-8226; ACHN; SN12C; IGROV-1; Hs-578T; NCI-H522.
What all share (assay): NCI-60 cell line screen, 48 h

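Five compound concentrations were applied to cells in 96-well plates for 48 hours; endpoints were derived by simple linear interpolation of the resulting dose-response curve. GI50 = concentration required for 50% inhibition of growth.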 Active and inactive are the calls of the source. Rule as the data show it: active = GI50 up to about 1.1 µM and inactive = higher.

On to `CC(C)CCC1(O)O[C@H]2C[C@H]3[C@@H]4CCC5CC(=O)C=C[C@]5(C)[C@H]4CC[C@]3(C)[C@H]2[C@@H]1C` (stereo not given in full), for which the GI50 in the experiment with MDA-MB-231 was 14.5 µM (inactive); in the experiment with HCT-116 it was 6.79 µM (inactive); in the experiment with OVCAR-5, 13.1 µM (inactive); in the experiment on UACC-62 it was 14.6 µM (inactive); with CAKI-1, 14.5 µM (inactive); with UACC-257, 15 µM (inactive). For the same compound, the GI50 is 11.2 µM in the experiment on HCT-15; 11.8 µM (inactive) in the experiment with TK-10; 13.2 µM (inactive) in the experiment on MDA-N; 10.3 µM (inactive) in the experiment on NCI-H460; 4.45 µM (inactive) with HL-60; 13.4 µM (inactive) with SF-268. Besides, the GI50 in the experiment on SK-MEL-5 was 13.7 µM (inactive); in the experiment with MOLT-4, 2.56 µM (inactive); in the experiment with RPMI-8226 it was 4.88 µM (inactive); in the experiment on ACHN, 13.7 µM (inactive); with SN12C, 14.4 µM (inactive); in the experiment on IGROV-1, 15.6 µM (inactive). For the same compound, the GI50 with Hs-578T was 2.82 µM (inactive); with NCI-H522, 1.8 µM (inactive).

As for `CCCCCCCCCCCCCCCCCCNc1nc(=O)n(C2CC(O)C(COP(=O)(O)OCC(COP(=O)(O)OC3C(CO)OC(n4ccc(N)nc4=O)C3O)OCCCCCCCCCCCCCCCCCC)O2)cc1F` (stereo not given), the GI50 was > 100 µM (inactive) with MDA-MB-231; 27.5 µM (inactive) in the experiment on HCT-116; 67.1 µM (inactive) with OVCAR-5; > 100 µM (inactive) with UACC-62; 46.3 µM (inactive) with CAKI-1; 97.3 µM (inactive) in the experiment with UACC-257. Moreover, the GI50 with HCT-15 was 34 µM; in the experiment on TK-10, 33.1 µM (inactive); in the experiment on MDA-N it was > 100 µM (inactive); in the experiment with NCI-H460, 9.2 µM (inactive); with HL-60 it was 8.36 µM (inactive); in the experiment on SF-268, 91.6 µM (inactive). In addition, the GI50 is > 100 µM (inactive) with SK-MEL-5; 0.675 µM (active) with MOLT-4; 11.8 µM (inactive) with RPMI-8226; 23.3 µM (inactive) with ACHN; > 100 µM (inactive) with SN12C; 46.8 µM (inactive) with IGROV-1. Further, the results for the GI50 in the experiment with Hs-578T and with NCI-H522 were 78.5 µM (inactive) and 11.9 µM (inactive), respectively.

`CSc1c(C#N)c(O)nc(N)c1C(=O)Nc1ccc(Cl)cc1`: the GI50 in the experiment with MDA-MB-231 is 15.6 µM (inactive); in the experiment with HCT-116, 5.45 µM (inactive); with OVCAR-5 it was 33 µM (inactive); in the experiment on UACC-62 it was 0.853 µM (active); with CAKI-1, 12.6 µM (inactive); with UACC-257, 6.78 µM (inactive). The GI50 with HCT-15 is 11.5 µM; in the experiment on TK-10, 29.3 µM (inactive); with MDA-N, 12 µM (inactive); in the experiment with NCI-H460, 6.32 µM (inactive); in the experiment on HL-60, 13.2 µM (inactive); with SF-268, 19.5 µM (inactive). Besides, the GI50 in the experiment on SK-MEL-5 is 10.4 µM (inactive); in the experiment on MOLT-4, 18.8 µM (inactive); in the experiment on RPMI-8226, 11.2 µM (inactive); in the experiment with ACHN, 3.18 µM (inactive); with SN12C, 23.8 µM (inactive); with IGROV-1 it was 23.2 µM (inactive). Moreover, the GI50 in the experiment with Hs-578T was 31 µM (inactive); in the experiment on NCI-H522, 14.1 µM (inactive).

`CC1(C)CCC2=C(O1)/C(=N\Nc1ccc(S(N)(=O)=O)cc1)c1ccccc1C2=O`: the GI50 is 2.56 µM (inactive) in the experiment on MDA-MB-231; 11.6 µM (inactive) in the experiment with HCT-116; 18.1 µM (inactive) in the experiment with OVCAR-5; 18.2 µM (inactive) with UACC-62; 14.8 µM (inactive) in the experiment on CAKI-1; 9.55 µM (inactive) with UACC-257. Also, the GI50 in the experiment with HCT-15 was 19.2 µM; in the experiment with TK-10, 14.5 µM (inactive); in the experiment with MDA-N, 2.84 µM (inactive); with NCI-H460, 12 µM (inactive); in the experiment with HL-60, 15.1 µM (inactive); in the experiment with SF-268, 11 µM (inactive). The GI50 with SK-MEL-5 is 1.81 µM (inactive); in the experiment with MOLT-4, 27.4 µM (inactive); in the experiment with RPMI-8226, 27.6 µM (inactive); in the experiment on ACHN, 19.8 µM (inactive); in the experiment on SN12C, 11.2 µM (inactive); with IGROV-1, 14.2 µM (inactive). For the same compound, the GI50 in the experiment on Hs-578T is 3.13 µM (inactive); with NCI-H522, 12.1 µM (inactive).

The values above are taken from ChEMBL document CHEMBL1201862, “PubChem BioAssay data set” (2004).
